Laboratory results reported in patent US20230416237A1, “AMIDE COMPOUND, PHARMACEUTICAL COMPOSITION AND USE THEREOF” (SHENZHEN BO LI JIAN MEDICINE CO., LTD., priority 2020, published 2023).

Key:
JAK2 [1] = target: T1, JAK2 (Homo sapiens (Human), UniProt O60674); test: JAK2 inhibitory activity, mobility shift assay, 1 mM ATP; type: biochemical
Protocol: (§1) The JAK1 inhibitory activity and the JAK2 inhibitory activity of the amide compounds provided in the above examples were tested by the method below.
(§2) Specific steps are described below. • 1. A 1× Kinase buffer was formulated. • 2. Concentration gradients of the compound were formulated: a test compound with an initial concentration of 10000 nM (JAK1) or 30000 nM (JAK2) was diluted in a 384-well plate to a 100% DMSO solution with a 100-fold final concentration, wherein the compound was diluted by a fold of 3 to 10 concentrations. 250 nL of the compound with the 100-fold final concentration was transferred with a dispenser Echo 550 to the target plate. • 3. A kinase solution with a 2.5-fold final concentration was prepared with the 1× Kinase buffer. • 4. […] The plate was centrifuged at 1000 rpm for 30 s, shaken and uniformly mixed, and incubated for 10 min at room temperature. • 6. A mixed solution of ATP (the final concentration of ATP=1 mM) and Kinase substrate with a 5/3-fold final concentration was formulated with the 1× Kinase buffer. • 7. 15 μL of the mixed solution of ATP and the substrate with the 5/3-fold final concentration was added to initiate the reaction. • 8. The 384-well plate was centrifuged at 1000 rpm for 30 s, shaken and uniformly mixed, and incubated for respective times at room temperature. • 9. The kinase reaction was stopped by adding 30 μL of a detection termination solution, and the plate was centrifuged at 1000 rpm for 30 s and shaken and uniformly mixed. • 10. The conversion rate was read with Caliper EZ Reader and the half maximal inhibitory concentration (IC50) was calculated.
Target sequence in this assay (O60674 826-1132): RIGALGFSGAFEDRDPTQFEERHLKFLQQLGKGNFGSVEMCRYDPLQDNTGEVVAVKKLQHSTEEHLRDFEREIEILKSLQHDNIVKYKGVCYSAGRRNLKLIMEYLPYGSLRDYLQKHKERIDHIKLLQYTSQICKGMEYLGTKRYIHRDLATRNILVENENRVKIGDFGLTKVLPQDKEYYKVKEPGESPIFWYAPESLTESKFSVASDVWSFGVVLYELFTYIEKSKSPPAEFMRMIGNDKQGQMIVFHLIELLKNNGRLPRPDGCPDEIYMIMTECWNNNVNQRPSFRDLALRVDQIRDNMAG

JAK1 = JAK1 (Homo sapiens (Human), UniProt P23458); test: JAK1 inhibitory activity, mobility shift assay, 1 mM ATP; type: biochemical; conditions: for IC50: 1 mM ATP
JAK1, sequence (P23458 850-1154): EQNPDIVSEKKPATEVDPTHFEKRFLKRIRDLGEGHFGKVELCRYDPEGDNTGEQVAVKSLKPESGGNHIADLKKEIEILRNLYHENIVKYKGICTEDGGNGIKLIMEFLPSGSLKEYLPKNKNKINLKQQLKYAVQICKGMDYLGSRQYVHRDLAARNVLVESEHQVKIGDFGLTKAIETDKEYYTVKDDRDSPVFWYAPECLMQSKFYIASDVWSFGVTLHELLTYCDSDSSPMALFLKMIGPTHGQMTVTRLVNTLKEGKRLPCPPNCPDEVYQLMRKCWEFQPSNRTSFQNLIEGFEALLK
Protocol: as §1, §2

[2] = tested on: IFNα-induced pSTAT3 (JAK1/TYK2 signaling pathway); test: Mouse whole blood assay, inhibition of IFNα-induced pSTAT3; type: cell-based; conditions: C57BL/6J mouse blood, IFNα 20000 IU/mL
Protocol: Cytokine IFNα can induce STAT3 phosphorylation (pSTAT3) through the JAK1/TYK2 signaling pathway. […] IFNα used was Recombinant mouse IFNα (Miltenyi #130-093-131), the pSTAT3 antibody used was Alexa Fluor 488 anti-STAT3 Phospho (Tyr705) Antibody (Biolegend #651106), and the CD3 antibody used was Brilliant Violet 421 anti-mouse CD3 Antibody (Biolegend #100228). The cytokine dilution buffer was PBS+0.1% BSA, which was filtered and stored at […]. The FACS buffer was PBS+0.2% BSA+1 mM EDTA. Specific steps are described below. • 1. C57BL/6J mouse blood was added to a 96-well plate, with 90 μL per well. • 2. Each well was added with 5 μL of the compound ([…]), uniformly mixed and incubated at 37° C. for 60 min in an incubator. • 3. Each well was added with 5 μL of 20×IFNα (with a working concentration of 20000 IU/mL) as the stimulation factor, uniformly mixed and incubated at 37° C. for 30 min. • 4. Blood was transferred to a 96-deep-well plate, and each well was added with 1 mL of Lyse fix buffer (1×), uniformly mixed and incubated at 37° C. for 10 min. • 5. The plate was centrifuged at 600 g for 5 min and the supernatant was discarded. 1 mL of PBS was added to each well and centrifuged at 600 g for 5 min and the supernatant was discarded, which were repeated twice. Each well was added with 100 μL of the anti-mCD3 antibody (diluted by a fold of 80 with the cytokine dilution buffer), uniformly mixed and incubated at 4° C. for 30 min. • 6. 1 mL of PBS was added to each well and centrifuged at 600 g for 5 min and the supernatant was discarded, which were repeated twice. Each well was added with 1000 μL of Perm III, uniformly mixed and incubated at 4° C. for 30 min. • 7. The plate was centrifuged at 600 g for 5 min and the supernatant was discarded. 1 mL of PBS was added to each well and centrifuged at 600 g for 5 min and the supernatant was discarded, which were repeated twice. • 8. Each well was added with 100 μL of the anti-pSTAT3 antibody (diluted by a fold of 50 with the FACS buffer), uniformly mixed and incubated at 25° C. for 40 min. • 9. 1 mL of the FACS buffer was added to each well and centrifuged at 600 g for 5 min and the supernatant was discarded. 200 μL of the FACS buffer was added to each well and resuspended. All samples were transferred to a 96-well tip-bottom plate and uploaded. • 10. Data were collected and analyzed.

JAK2 [3] = target: T1, JAK2; conditions: selective JAK1 inhibitors, literature; cited from earlier work
Target sequence in this assay (O60674 whole entry, species assumed): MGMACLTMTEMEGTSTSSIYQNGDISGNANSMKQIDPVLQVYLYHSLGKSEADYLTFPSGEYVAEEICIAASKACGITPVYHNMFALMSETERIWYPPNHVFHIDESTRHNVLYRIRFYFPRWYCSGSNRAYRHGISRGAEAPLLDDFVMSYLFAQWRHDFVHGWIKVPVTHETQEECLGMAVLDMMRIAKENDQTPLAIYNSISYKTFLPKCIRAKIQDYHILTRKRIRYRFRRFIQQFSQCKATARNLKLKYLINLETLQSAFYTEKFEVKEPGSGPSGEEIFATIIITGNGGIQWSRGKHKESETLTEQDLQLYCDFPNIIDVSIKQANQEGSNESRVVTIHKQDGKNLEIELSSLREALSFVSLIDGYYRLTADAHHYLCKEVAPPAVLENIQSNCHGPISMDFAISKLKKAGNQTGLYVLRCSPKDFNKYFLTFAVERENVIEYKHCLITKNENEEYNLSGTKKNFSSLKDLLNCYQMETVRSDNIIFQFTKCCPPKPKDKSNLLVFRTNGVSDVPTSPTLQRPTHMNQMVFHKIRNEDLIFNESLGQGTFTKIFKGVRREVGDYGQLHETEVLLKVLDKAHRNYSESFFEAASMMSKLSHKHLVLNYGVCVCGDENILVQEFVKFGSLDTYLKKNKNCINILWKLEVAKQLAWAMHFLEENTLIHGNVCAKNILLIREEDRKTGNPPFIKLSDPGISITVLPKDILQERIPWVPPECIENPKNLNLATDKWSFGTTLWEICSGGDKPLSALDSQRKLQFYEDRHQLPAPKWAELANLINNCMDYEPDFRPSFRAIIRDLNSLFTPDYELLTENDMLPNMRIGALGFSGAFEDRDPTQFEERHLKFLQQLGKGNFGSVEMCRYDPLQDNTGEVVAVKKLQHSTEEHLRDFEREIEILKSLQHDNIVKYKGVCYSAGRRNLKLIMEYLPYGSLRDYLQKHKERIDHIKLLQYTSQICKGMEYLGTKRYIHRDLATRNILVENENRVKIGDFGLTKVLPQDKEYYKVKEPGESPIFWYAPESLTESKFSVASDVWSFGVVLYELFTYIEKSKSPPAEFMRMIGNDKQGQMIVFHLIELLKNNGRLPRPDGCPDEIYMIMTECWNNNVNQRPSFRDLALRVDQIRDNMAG

Structure (SMILES): COc1nn(C)cc1Nc1ncc(C)c(-c2c[nH]c3c(NC(=O)[C@H]4C[C@H](F)CN4[C@@H]4CCN(C)C4)cccc23)n1 [Example 30, (2R,3′R,4S)-4-fluoro-N-(3-(2-((3-methoxy-1-methyl-1H-pyrazol-4-yl)amino)-5-methylpyrimidin-4-yl)-1H-indol-7-yl)-1′-methyl-[1,3′-bipyrrolidine]-2-carboxamide]
- IC50 (JAK2 [1]; Table 7): 5160 nM
- IC50 (JAK2 [1]; Table 8): 5160 nM
- IC50 (JAK1; Table 7): 33 nM
- IC50 (JAK1; Table 8): 33 nM
- JAK2/JAK1 Multiple selectivity (JAK1; ratio of JAK2 IC50 to JAK1 IC50, 1 mM ATP): 156
- IC50 [2]: 127 nM

Structure (SMILES): O=C(Nc1nc2cccc(-c3ccc(CN4CCS(=O)(=O)CC4)cc3)n2n1)C1CC1 [filgotinib]
- selectivity for JAK2 in kinase assays (JAK2 [3]): less than three

Structure (SMILES): CC[C@@H]1CN(C(=O)NCC(F)(F)F)C[C@@H]1c1cnc2cnc3[nH]ccc3n12 [upadacitinib]
- selectivity for JAK2 in kinase assays (JAK2 [3]): less than three
